Drawing on patent US10851093B2, “Tyrosine kinase inhibitors” (Rigel Pharmaceuticals, Inc., priority 2018, dated 2020), this text covers EC50 for 17 molecules.

One experiment deals with T1, Axl (Homo sapiens, UniProt P30530).
T1 construct: Seed HUVECs (10K cells/well) in EBM-2 complete media; host or cells: HUVEC
T1 sequence (P30530 26-894): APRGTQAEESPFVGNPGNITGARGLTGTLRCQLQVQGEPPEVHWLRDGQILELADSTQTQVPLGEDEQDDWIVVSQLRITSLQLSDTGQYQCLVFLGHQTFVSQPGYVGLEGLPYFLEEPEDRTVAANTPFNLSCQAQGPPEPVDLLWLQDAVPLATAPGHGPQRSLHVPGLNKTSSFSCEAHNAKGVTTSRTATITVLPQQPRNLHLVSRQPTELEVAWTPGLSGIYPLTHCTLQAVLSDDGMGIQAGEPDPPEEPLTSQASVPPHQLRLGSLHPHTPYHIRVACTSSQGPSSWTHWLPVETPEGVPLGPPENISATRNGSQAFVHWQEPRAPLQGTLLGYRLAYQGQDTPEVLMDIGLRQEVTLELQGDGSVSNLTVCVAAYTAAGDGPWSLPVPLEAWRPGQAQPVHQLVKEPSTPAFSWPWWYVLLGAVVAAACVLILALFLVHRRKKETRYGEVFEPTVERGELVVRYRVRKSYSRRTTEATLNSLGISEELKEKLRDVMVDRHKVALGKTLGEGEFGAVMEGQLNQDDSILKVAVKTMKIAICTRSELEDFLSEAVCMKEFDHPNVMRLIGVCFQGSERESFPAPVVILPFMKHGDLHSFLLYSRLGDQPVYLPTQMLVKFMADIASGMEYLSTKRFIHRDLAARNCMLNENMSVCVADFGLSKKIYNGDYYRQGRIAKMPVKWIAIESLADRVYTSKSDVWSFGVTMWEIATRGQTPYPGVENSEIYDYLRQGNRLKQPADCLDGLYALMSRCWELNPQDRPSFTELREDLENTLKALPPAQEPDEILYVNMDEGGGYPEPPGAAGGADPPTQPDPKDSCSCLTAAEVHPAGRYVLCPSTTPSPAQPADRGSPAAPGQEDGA
In words: Phospho-AKT HTRF, HUVEC, Axl ABX-L, 8 pt. The experiment is classed as cell-based. Particulars: HUVEC cells, pAkt(Ser473) HTRF, Axl ABX-L stimulation. As to the method:
[The source words this procedure for another target and reports this target under the same test.] (§1) Example 13: PAKT HTRF-HUVEC Assay
(§2) Seed HUVECs (10K cells/well) in EBM-2 complete media (EBM-2 basal medium plus EGM-2 BulletKit supplements) overnight at 37° C., 5% CO2 in Costar 96-well white clear-bottom plates. Remove culture media and starve cells for 3-4 hours in 50 μL/well EBM-2 basal medium. Perform serial dilution of compounds in DMSO from 2.5 mM in 4-fold dilutions, and then dilute 1:125 in EBM-2 basal media. Mix 50 μL/well 2× compounds with 50 μL/well HUVECs in duplicate in Costar 96-well white clear-bottom plates. Incubate plates for 1 hour at 37° C., 5% CO2. Cross-link anti-human MerTK antibody to Biotin-SP-conjugated anti-mouse IgG antibody (1:1) to give final concentrations of 5 μg/mL of anti-human MerTK-XL. Stimulate HUVECs with 25 μL/well 5× anti-human MerTK-XL to give final concentrations of 1 ug/mL for 10 minutes at 37° C., 5% CO2. Completely remove media and lyse HUVECs with 40 uL:WELL per well of Cisbio HTRF 1× lysis buffer. Performed pAkt(Ser473) HTRF assay in ProxiPlate-384 Plus, white 384-shallow well microplate according to the vendor protocol and read plates with a SpectralMax Paradigm plate reader. Enter the HTRF values into Athena (Rigel) for curve fitting, EC50 calculation, and database storage.
A general note: TR-FRET usually uses a lanthanide donor and a delayed reading to cut background.

The next experiment concerns the target T2, MerTK (Homo sapiens, UniProt Q12866).
T2 construct: Seed HUVECs (10K cells/well) in EBM-2 complete media; host or cells: HUVEC
T2 sequence (Q12866 21-999): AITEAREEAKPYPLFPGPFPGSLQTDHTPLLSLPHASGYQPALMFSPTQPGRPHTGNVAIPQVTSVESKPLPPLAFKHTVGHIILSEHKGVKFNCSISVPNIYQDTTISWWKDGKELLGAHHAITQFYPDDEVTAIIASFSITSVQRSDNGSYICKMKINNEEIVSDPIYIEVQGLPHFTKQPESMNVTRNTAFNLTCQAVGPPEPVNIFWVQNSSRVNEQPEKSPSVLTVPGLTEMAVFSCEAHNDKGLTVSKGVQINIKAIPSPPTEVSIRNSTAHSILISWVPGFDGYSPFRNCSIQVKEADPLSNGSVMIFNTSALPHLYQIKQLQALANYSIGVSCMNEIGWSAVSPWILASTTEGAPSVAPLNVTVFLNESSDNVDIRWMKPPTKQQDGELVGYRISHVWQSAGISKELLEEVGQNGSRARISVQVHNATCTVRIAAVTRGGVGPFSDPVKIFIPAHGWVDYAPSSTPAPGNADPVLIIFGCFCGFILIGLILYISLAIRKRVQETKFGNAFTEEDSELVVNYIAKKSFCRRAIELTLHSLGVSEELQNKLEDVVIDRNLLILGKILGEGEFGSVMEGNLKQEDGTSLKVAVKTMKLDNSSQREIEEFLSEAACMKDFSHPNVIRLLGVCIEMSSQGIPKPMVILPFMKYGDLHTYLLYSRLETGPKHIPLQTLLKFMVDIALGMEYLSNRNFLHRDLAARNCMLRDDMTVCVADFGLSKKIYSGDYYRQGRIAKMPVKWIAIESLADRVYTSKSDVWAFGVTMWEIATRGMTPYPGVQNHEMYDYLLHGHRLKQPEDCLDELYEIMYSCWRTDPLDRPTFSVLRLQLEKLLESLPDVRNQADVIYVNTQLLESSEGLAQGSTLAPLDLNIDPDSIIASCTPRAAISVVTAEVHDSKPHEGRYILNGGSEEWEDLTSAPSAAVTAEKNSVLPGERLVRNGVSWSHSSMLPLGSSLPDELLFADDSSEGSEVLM
In words: Phospho-AKT HTRF, HUVEC, Mer-XL, 8 pt (pAKT HTRF-HUVEC assay, anti-human MerTK-XL stimulation). The class given is cell-based. The settings on record: HUVEC cells, pAkt(Ser473) HTRF, anti-human MerTK-XL stimulation 1 ug/mL 10 minutes. The method, then: as §1, §2

For orientation: EC50 means the concentration that produces a half-maximal response. Read a low EC50 as a more potent agent. Regarding `COc1cc2c(Oc3ccc(NC(=O)c4cc(N5CCC(O)CC5)ccn4)nc3)ccnc2cc1OCCCN1CCOCC1` [Compound 11, 4-(4-Hydroxypiperidin-1-yl)-N-(5-((6-methoxy-7-(3-morpholino-propoxy)quinolin-4-yl)oxy)pyridin-2-yl)picolinamide], the EC50 at Axl was 0.197 µM; on MerTK, 0.086 µM.

With `COc1cc2c(Oc3ccc(NC(=O)c4cccc(N5CCC(O)CC5)n4)nc3)ccnc2cc1OCCCN1CCOCC1` [Compound 24, 6-(4-hydroxypiperidin-1-yl)-N-(5-((6-methoxy-7-(3-morpholinopropoxy)quinolin-4-yl)oxy)pyridin-2-yl)picolinamide], the half-maximal effective concentration (EC50) on Axl is 0.742 µM; on MerTK, 0.654 µM.

For the molecule `CCOC1CCN(c2cccc(C(=O)Nc3ccc(Oc4ccnc5cc(OCCCN6CCOCC6)c(OC)cc45)cn3)n2)CC1` [Compound 29, 6-(4-ethoxypiperidin-1-yl)-N-(5-((6-methoxy-7-(3-morpholinopropoxy)quinolin-4-yl)oxy)pyridin-2-yl)picolinamide], the EC50 on Axl was 0.651 µM; on MerTK, 0.69 µM.

Regarding `COc1cc2c(Oc3ccc(NC(=O)c4cc(-c5ccccc5)c5c(n4)C4CCN5CC4)nc3)ccnc2cc1OCCCN1CCOCC1` [Compound 2, N-(5-((6-Methoxy-7-(3-morpholinopropoxy)quinolin-4-yl)oxy)pyridin-2-yl)-8-phenyl-3,4-dihydro-2H-1,4-ethano-1,5-naphthyridine-6-carboxamide], the EC50 is 0.0408 µM on Axl and 0.047 µM at MerTK.

In the case of `COc1cc2c(Oc3ccc(NC(=O)c4cc(N5CCC(F)(F)CC5)ccn4)nc3)ccnc2cc1OCCCN1CCOCC1` [Compound 21, 4-(4,4-difluoropiperidin-1-yl)-N-(5-((6-methoxy-7-(3-morpholinopropoxy)quinolin-4-yl)oxy)pyridin-2-yl)picolinamide], the EC50 at Axl is 0.0628 µM; on MerTK, 0.0806 µM.

For `COc1cc2c(Oc3ccc(NC(=O)c4cc(-c5ccccc5)ccn4)nc3)ccnc2cc1OCCCN1CCOCC1` [Compound 3, N-(5-((6-Methoxy-7-(3-morpholinopropoxy)quinolin-4-yl)oxy)pyridin-2-yl)-4-phenylpicolinamide], the results for the 50% effective concentration (EC50) on Axl and on MerTK were 0.162 µM and 0.0987 µM, respectively.

As to `CCOC1CCN(c2ccnc(C(=O)Nc3ccc(Oc4ccnc5cc(OCCCN6CCOCC6)c(OC)cc45)cn3)c2)CC1` [Compound 15, 4-(4-ethoxypiperidin-1-yl)-N-(5-((6-methoxy-7-(3-morpholinopropoxy)quinolin-4-yl)oxy)pyridin-2-yl)picolinamide], the EC50 at Axl was 0.257 µM; at MerTK, 0.204 µM.

Regarding `COc1cc2c(Oc3ccc(NC(=O)c4cc(N5CC(F)(F)C5)ccn4)nc3)ccnc2cc1OCCCN1CCOCC1` [Compound 20, 4-(3,3-difluoroazetidin-1-yl)-N-(5-((6-methoxy-7-(3-morpholinopropoxy)quinolin-4-yl)oxy)pyridin-2-yl)picolinamide], the results for the EC50 on Axl and at MerTK were 0.163 µM and 0.209 µM, respectively.

Consider `COc1cc2c(Oc3ccc(NC(=O)c4cc(N5CC6(CCOCC6)C5)ccn4)nc3)ccnc2cc1OCCCN1CCOCC1` [Compound 18, N-(5-((6-methoxy-7-(3-morpholinopropoxy)quinolin-4-yl)oxy)pyridin-2-yl)-4-(7-oxa-2-azaspiro[3.5]nonan-2-yl)picolinamide], for which the 50% effective concentration (EC50) was 0.114 µM at Axl and 0.098 µM on MerTK.

With `COc1cc2c(Oc3ccc(NC(=O)c4nccc(-c5ccccc5)n4)nc3)ccnc2cc1OCCCN1CCOCC1` [Compound 4, N-(5-((6-Methoxy-7-(3-morpholinopropoxy)quinolin-4-yl)oxy)pyridin-2-yl)-4-phenylpyrimidine-2-carboxamide], the EC50 at Axl was 0.005 µM; at MerTK it was 0.0039 µM.

Take `COc1cc2c(Oc3ccc(NC(=O)c4cc(N5CCN(C)CC5)ccn4)nc3)ccnc2cc1OCCCN1CCOCC1` [Compound 1, N-(5-((6-Methoxy-7-(3-morpholinopropoxy)quinolin-4-yl)oxy)pyridin-2-yl)-4-(4-methylpiperazin-1-yl)picolinamide]: the values for the EC50 on Axl and at MerTK were 0.403 µM and 0.421 µM, respectively.

Turning to `COc1cc2nccc(Oc3ccc(NC(=O)c4nc(-c5ccccc5)c5c(n4)C4CCN5CC4)nc3)c2cc1OC` [Compound 38, N-(5-((6,7-dimethoxyquinolin-4-yl)oxy)pyridin-2-yl)-4-phenyl-7,8-dihydro-6H-5,8-ethanopyrido[3,2-d]pyrimidine-2-carboxamide], the half-maximal effective concentration (EC50) at Axl worked out at 0.0131 µM; at MerTK, 0.0077 µM.

As to `COc1ccnc(C(=O)Nc2ccc(Oc3ccnc4cc(OCCCN5CCOCC5)c(OC)cc34)cn2)c1` [Compound 33, 4-Methoxy-N-(5-((6-methoxy-7-(3-morpholinopropoxy)quinolin-4-yl)oxy)pyridin-2-yl)picolinamide], the EC50 at Axl worked out at 0.188 µM; at MerTK, 0.161 µM.

As to `COc1cc2c(Oc3ccc(NC(=O)c4cccc(-c5ccccc5)n4)nc3)ccnc2cc1OCCCN1CCOCC1` [Compound 10, N-(5-((6-Methoxy-7-(3-morpholinopropoxy)quinolin-4-yl)oxy)pyridin-2-yl)-6-phenylpicolinamide], the values for the EC50 at Axl and on MerTK were 0.0129 µM and 0.0049 µM, respectively.

As for `COc1cc2c(Oc3ccc(NC(=O)c4cc(N5CCOCC5)ccn4)nc3)ccnc2cc1OCCCN1CCOCC1` [Compound 14, N-(5-((6-methoxy-7-(3-morpholinopropoxy)quinolin-4-yl)oxy)pyridin-2-yl)-4-morpholinopicolinamide], the EC50 was 0.805 µM at Axl and 0.43 µM at MerTK.

As to `COc1cc2c(Oc3ccc(NC(=O)c4cc(N5CCCC5)ccn4)nc3)ccnc2cc1OCCCN1CCOCC1` [Compound 16, N-(5-((6-methoxy-7-(3-morpholinopropoxy)quinolin-4-yl)oxy)pyridin-2-yl)-4-(pyrrolidin-1-yl)picolinamide], the EC50 on Axl amounted to 0.0432 µM; at MerTK, 0.0279 µM.

As to `COc1cc2c(Oc3ccc(NC(=O)c4cc(N5CCC(C)(C)CC5)ccn4)nc3)ccnc2cc1OCCCN1CCOCC1` [Compound 22, 4-(4,4-dimethylpiperidin-1-yl)-N-(5-((6-methoxy-7-(3-morpholinopropoxy)quinolin-4-yl)oxy)pyridin-2-yl)picolinamide], the values for the EC50 at Axl and on MerTK were 0.187 µM and 0.096 µM, respectively.
